“Also recorded” adds a separate entry of the source. Residues, ends and D or L forms follow the SMILES beside them. *: point of attachment. Cbz = O=C(OCc1ccccc1)*
Columns and labels:
[1] = tested on: GS; experiment: GS ubiquitylation in USP15-/- 293FT cells, TUBE2 pulldown; assay type: cell-based; conditions: for accumulation of ubiquitylated GS under CB-5083 with co-treatment: pre-treated 2 μM MLN4924 or 2 mM MSO 0.5 h, then CB-5083 6 h
Source text: FIG. 3B depicts a Western blot. […] Total ubiquitylated proteins were purified using TUBE2-agarose.

[2] = tested on: GS; experiment: Rescue of endogenous GS protein levels in USP15-KO 293FT cells, immunoblot; assay type: cell-based; conditions: 2 μM MLN4924 or 2 mM MSO
Experimental: Cell extracts were analyzed by IB with the indicated antibodies.

[3] = tested on: GS; experiment: GS stability in mTOR-shRNA 293FT cells treated with MLN4924 or MSO; assay type: cell-based; conditions: mTOR-shRNA TRIPZ_3 293FT cells, treated 14 h
Experimental: Cells were treated with different concentrations of MLN4924 for 14 h. Cell extracts were analyzed by IB with the indicated antibodies.
Cells were treated with different concentrations of MSO (G) for 14 h. Cell extracts were analyzed by IB with the indicated antibodies.

[4] = tested on: LN229 cells; conditions: no glutamine, MSO 2 mM, 5 days
Experimental: FIG. 3E depicts quantification of cell viability. […] An equal number of cells (1×10^6 cells in 10-cm plates) were then shifted to medium without glutamine in the presence (+) or absence (−) of the GS inhibitor MSO (2 mM) for 5 days, after which cell viability was quantified by staining with 0.4% Trypan blue. Cell viability was normalized to MSO-untreated control (−), which was set to 100%.

[5] = tested on: GSPT1; experiment: CC-885-induced GSPT1 ubiquitylation and degradation in USP15-/- 293FT cells with inhibitors
[6] = tested on: GS; conditions: Jurkat cells, treated 4 h; cited from earlier work
[7] = target: T1, USP15 (Homo sapiens, UniProt Q9Y4E8); experiment: In vitro deubiquitylation assay with recombinant USP15 (rUSP15); conditions: for activity of USP15 (deubiquitylation of polyubiquitylated GSPT1): 37° C., 0.5 h
T1 sequence (Q9Y4E8 1-981): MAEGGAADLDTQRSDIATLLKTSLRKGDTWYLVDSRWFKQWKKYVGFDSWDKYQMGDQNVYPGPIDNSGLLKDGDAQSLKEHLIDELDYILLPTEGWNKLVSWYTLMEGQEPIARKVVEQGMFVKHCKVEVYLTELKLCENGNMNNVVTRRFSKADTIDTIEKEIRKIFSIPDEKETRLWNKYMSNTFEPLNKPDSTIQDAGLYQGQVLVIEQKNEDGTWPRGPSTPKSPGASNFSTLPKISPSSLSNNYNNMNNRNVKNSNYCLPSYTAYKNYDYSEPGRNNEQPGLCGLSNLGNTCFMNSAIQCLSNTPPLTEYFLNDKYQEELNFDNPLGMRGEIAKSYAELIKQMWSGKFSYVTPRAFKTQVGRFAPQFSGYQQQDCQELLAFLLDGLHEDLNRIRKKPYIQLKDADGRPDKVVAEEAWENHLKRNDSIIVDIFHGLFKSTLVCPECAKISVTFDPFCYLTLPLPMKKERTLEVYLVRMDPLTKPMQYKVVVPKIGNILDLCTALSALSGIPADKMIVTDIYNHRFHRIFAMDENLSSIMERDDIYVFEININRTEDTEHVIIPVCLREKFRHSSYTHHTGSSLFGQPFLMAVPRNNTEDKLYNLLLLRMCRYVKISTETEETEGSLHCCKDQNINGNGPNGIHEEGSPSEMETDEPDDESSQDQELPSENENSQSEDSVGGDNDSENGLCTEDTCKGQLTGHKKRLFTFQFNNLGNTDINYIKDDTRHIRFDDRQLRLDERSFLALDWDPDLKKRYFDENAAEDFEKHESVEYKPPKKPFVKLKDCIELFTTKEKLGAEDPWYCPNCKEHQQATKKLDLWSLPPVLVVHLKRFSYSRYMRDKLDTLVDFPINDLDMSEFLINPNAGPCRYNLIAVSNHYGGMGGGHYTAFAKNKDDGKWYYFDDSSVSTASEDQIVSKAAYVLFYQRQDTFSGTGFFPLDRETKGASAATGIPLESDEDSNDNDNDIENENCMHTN
Source text: GSPT1(Ub)n: polyubiquitylated GSPT1.
SE and LE: short and long exposures. GSPT1(Ub)n: polyubiquitylated GSPT1.

[8] = tested on: GS; experiment: Glutamine-induced GS ubiquitylation, TUBE2 pulldown and immunoblot in MCF7 cells; assay type: cell-based; conditions: MCF7 cells starved of glutamine 24 h; 40 μM NSC632839 or 20 μM PR-619 0.5 h, then 4 mM glutamine 2 h
Experimental: FIG. 1D depicts a Western blot. MCF7 cells, starved of glutamine for 24 h, were treated with MG132 (10 μM) and/or 40 μM NSC632839, 20 μM PR-619 for 0.5 h, followed by 4 mM glutamine treatment for 2 h. Total ubiquitylated proteins were purified using TUBE2-agarose, and then analyzed by IB with indicated antibodies. The relative ratio of ubiquitylated GS, GS(Ub)n to input GS, normalized to that of glutamine-treated cells in lane 2, are shown.

[9] = tested on: GS; experiment: Endogenous GS protein level by immunoblot in glutamine-treated MCF7 cells; assay type: cell-based; conditions: MCF7 cells starved of glutamine 24 h; inhibitor 0.5 h, then 4 mM glutamine 10 h
Experimental: FIG. 1E depicts a Western blot. MCF7 cells, starved of glutamine for 24 h, were treated with NSC632839 for 0.5 h, followed by 4 mM glutamine treatment for 10 h. Cell extracts were analyzed by IB. The relative ratio of GS:Actin is shown.
FIG. 1F depicts a Western blot. MCF7 cells, starved of glutamine for 24 h, were treated with PR-619 for 0.5 h, followed by 4 mM glutamine treatment for 10 h. Cell extracts were analyzed by IB. The relative ratio of GS:Actin is shown.

[10] = tested on: GS; experiment: Glutamine-induced GS degradation in glutamine-starved H1299 cells with Torin1 and CB5083; assay type: cell-based
Experimental: FIG. 8A depicts a Western blot. Glutamine-starved H1299 cells, pre-treated with 250 nM Torin1 and 10 μM CB5083 for 0.5 h, were stimulated with 4 mM glutamine for 4 h. Cell extracts were analyzed by IB with the indicated antibodies.

[11] = tested on: USP15; experiment: USP15 S229 phosphorylation by mass spectrometry in 293FT cells; assay type: cell-based; conditions: 250 nM Torin1 16 h vs DMSO
Experimental: FIG. 10C depicts the phosphorylation peptide abundance calculated by phosphorylated peptides/(phosphorylated peptides+unmodified peptides)*100%. The abundance of S229 phosphorylation (P-S229) was calculated and represented as mean±SD; n=2 per group (p=0.01035 by t test).
To map the phosphorylation sites of USP15, which has 32 potential serine/threonine phosphorylation sites reported in ‘PhosphoSitePlus’ with the most prevalent serine 229, USP15^Flag was immune-purified from 293FT cells treated with DMSO or 250 nM Torin1 for 16 h and analyzed by MS analysis. […] Moreover, it represents an mTOR consensus sequence motif S/T-P (where S is serine; T is threonine; and P is proline) (FIG. 10B). […] Thus, the MS data were consistent with the other results, showing that USP15 was phosphorylated at serine in an mTORC1-dependent manner (FIG. 7B-7C).
MS analysis to identify the phosphorylation sites of USP15 was done at the Charles W. Gehrke proteomics center—University of Missouri, as described previously (Peterson T R, et al., Cell. 2009; 137(5):873-86. Epub 2009/05/19).

[12] = tested on: mTORC1; experiment: Glutamine-induced serine phosphorylation of USP15^Flag and USP15-GS binding, IP in 293FT cells; assay type: cell-based
Experimental: FIG. 7B depicts a Western blot. 293FT cells, transfected with CT or USP15^Flag plasmid for 24 h, were grown in complete medium (C; 2 mM glutamine) or starved of glutamine for 24 h, then treated with Torin1 for 0.5 h, followed by 4 mM glutamine treatment for 1-2 h. Cell extracts were immunoprecipitated with anti-Flag. The relative ratios of phosphorylated serine USP15^Flag to total input USP15^Flag and endogenous GS interacted with USP15^Flag to input GS, normalized to that of untreated cells in lane 3, are shown.

[13] = tested on: cysteine protease DUBs, including USP15; conditions: cited from earlier work
[14] = tested on: RPMI8226 cells; experiment: RPMI8226 cell number/viability, PR-619 with lenalidomide, Trypan blue; assay type: cell-based; conditions: PR-619 1 μM with lenalidomide, 4 days
Source text: FIG. 6G depicts total cell number after different treatment conditions. […] Error bars represent the SEM of triplicates (P<0.003 by t test).

[15] = tested on: U266 cells; experiment: Neo-substrate degradation in U266 cells, PR-619 with lenalidomide, immunoblot; assay type: cell-based; conditions: PR-619 2 μM 1 h, lenalidomide 0, 2 and 10 μM 6 h
Experimental: FIG. 6L depicts a Western blot. […] Cell extracts were analyzed by SDS-PAGE and immunoblotting with indicated antibodies.

[16] = tested on: GS; experiment: Glutamine-induced GS degradation in H1299 cells co-treated with DUB inhibitor and MLN4924; assay type: cell-based; conditions: 2 μM MLN4924 with NSC632839 or PR-619, 4 mM glutamine 8 h
Experimental: FIG. 1G depicts a Western blot. […] Cell extracts were analyzed by IB. The relative ratio of GS:Actin is shown.
FIG. 1H depicts a Western blot. […] Cell extracts were analyzed by IB. The relative ratio of GS:Actin is shown.

In the case of `CS(=N)(=O)CC[C@H](N)C(=O)O` (stereo partly drawn) [MSO, L-Methionine sulfoximine], the “accumulation of ubiquitylated GS under CB-5083 with co-treatment” value [1] is reported as “but not in cells co-treated with MLN4924 and MSO”, the “downregulation of endogenous GS protein levels in USP15-KO cells” value [2] is reported as “rescued” and the “effect of mTOR depletion by shRNA on GS stability” value [3] is reported as “rescued the effect of mTOR depletion by shRNA on GS stability”. For the same molecule, the “cell viability, combined with USP15 depletion by shRNAs” value ([4]; LN229 cells with USP15 shRNAs) was “synergistic inhibition of cell viability” and the cell viability ([4]; control LN229 cells) was “severe defect in cell viability”.

In the case of `CC(C)C[C@@H](C=O)NC(=O)[C@H](CC(C)C)NC(=O)[C@H](CC(C)C)NC(=O)OCc1ccccc1` [MG132] (Cbz-Leu-Leu-Leu-aldehyde), the “CC-885-induced degradation of GSPT1” value ([5]; USP15-/- 293FT cells co-treated with CC-885 and inhibitor) is listed as “blocked”, the “polyubiquitylated GSPT1 on co-treatment with CC-885” value ([5]; USP15-/- 293FT cells, 10 μM CB-5083 or 20 μM MG132, 10 μM CC-885 3 h) is listed as “polyubiquitylated GSPT1 was accumulated” and the “GS ubiquitylation (SILAC ubiquitinome)” value [6] is listed as “increased ubiquitylation of GS”.

In the case of `CCN1C(=O)C=CC1=O` [N-Ethylmaleimide], the “activity of USP15 (deubiquitylation of polyubiquitylated GSPT1)” value ([7]; NEM 20 mM (FIG. 5B legend)) is reported as “completely inhibited”.

For `Cc1ccc(/C=C2\CNC/C(=C\c3ccc(C)cc3)C2=O)cc1.Cl` [NSC632839], the “glutamine-induced ubiquitylation of GS” value [8] was “promoted glutamine-induced ubiquitylation of GS” and the “protein levels of endogenous GS” value [9] was “decreased protein levels of endogenous GS”.

In the case of `Cc1cc2c(C(N)=O)cccc2n1-c1nc2c(c(NCc3ccccc3)n1)COCC2` [CB-5083], the “accumulation of ubiquitylated GS” value ([1]; 0.5 mM glutamine, CB-5083 6 h) is reported as “accumulation of ubiquitylated GS was observed” and the “Torin-1-promoted glutamine-induced GS degradation with p97 inhibitor” value ([10]; H1299 cells, 10 μM CB5083 with 250 nM Torin1) is reported as “blunted”.

For `CCC(=O)N1CCN(c2ccc(-n3c(=O)ccc4cnc5ccc(-c6cnc7ccccc7c6)cc5c43)cc2C(F)(F)F)CC1` [Torin1], the “S229 phosphorylation of USP15” value [11] was “significantly decreased”, the “glutamine-induced phosphorylated serine USP15^Flag (P-Ser-USP15)” value ([12]; Torin1 0.5 h then 4 mM glutamine 1-2 h) was “substantially abolished” and the “binding of USP15 to GS” value ([12]; Torin1-treated) was “significant reduction in binding of USP15 to GS”. For the same molecule, the “glutamine-induced GS degradation” value ([10]; glutamine-starved H1299 cells, 250 nM Torin1, 4 mM glutamine 4 h) was “promoted glutamine-induced GS degradation”.

In the case of `N#CSc1cc(SC#N)c(N)nc1N` [PR-619], the “inhibition of DUB activity (previous study)” value [13] is listed as “can inhibit the activity of almost all cysteine protease DUBs, including USP15”, the “sensitization to lenalidomide (cell number/viability)” value [14] is listed as “sensitized resistant cell line RPMI8226 to lenalidomide” and the “activity of USP15 (deubiquitylation of polyubiquitylated GSPT1)” value ([7]; PR-619 100 μM) is listed as “completely inhibited”. The USP15 activity ([7]; PR-619 concentration range 1-20 μM) was “substantially suppressed USP15 activity in a dose-dependent manner”, the “GS ubiquitylation (SILAC ubiquitinome)” value [6] was “decreased GS ubiquitylation; also recorded: decreased the ubiquitination of GS” and the “glutamine-induced ubiquitylation of GS” value [8] was “promoted glutamine-induced ubiquitylation of GS”. The “degradation of neo-substrates on co-treatment with lenalidomide” value [15] was “significantly promoted degradation of neo-substrates” and the “protein levels of endogenous GS” value [9] was “decreased protein levels of endogenous GS”.

For `NS(=O)(=O)OC[C@@H]1C[C@@H](n2ccc3c(N[C@H]4CCc5ccccc54)ncnc32)C[C@@H]1O` [MLN4924], the “accumulation of ubiquitylated GS under CB-5083 with co-treatment” value [1] was “but not in cells co-treated with MLN4924 and MSO”, the “accumulation of polyubiquitylated GSPT1 (CC-885 with MG132 or CB-5083) in presence of MLN4924” value ([5]; USP15-/- 293FT cells, 2 μM MLN4924) was “completely abolished” and the “downregulation of endogenous GS protein levels in USP15-KO cells” value [2] was “rescued”. The “effect of mTOR depletion by shRNA on GS stability” value [3] was “rescued the effect of mTOR depletion by shRNA on GS stability” and the “effect on action of DUB inhibitors on glutamine-induced GS degradation” value [16] was “blocked the action of DUB inhibitors on glutamine-induced GS degradation”.
